The source made the active and inactive calls. The calls are words filed in the database; no cut-off is given here.

For data set [1], the system named is U-937. Description: Antiproliferative activity against human U-937 cells assessed as inhibition of cell viability measured after 72 hrs by MTT assay. As to conditions: U-937, 72 h. The format is functional, cell-based. In general terms: Tetrazolium dyes change colour on reduction, which living cells bring about.
Data set [2] addresses T1, Histone-lysine N-methyltransferase EHMT2 (Homo sapiens, UniProt Q96KQ7).
T1 sequence (Q96KQ7 whole entry): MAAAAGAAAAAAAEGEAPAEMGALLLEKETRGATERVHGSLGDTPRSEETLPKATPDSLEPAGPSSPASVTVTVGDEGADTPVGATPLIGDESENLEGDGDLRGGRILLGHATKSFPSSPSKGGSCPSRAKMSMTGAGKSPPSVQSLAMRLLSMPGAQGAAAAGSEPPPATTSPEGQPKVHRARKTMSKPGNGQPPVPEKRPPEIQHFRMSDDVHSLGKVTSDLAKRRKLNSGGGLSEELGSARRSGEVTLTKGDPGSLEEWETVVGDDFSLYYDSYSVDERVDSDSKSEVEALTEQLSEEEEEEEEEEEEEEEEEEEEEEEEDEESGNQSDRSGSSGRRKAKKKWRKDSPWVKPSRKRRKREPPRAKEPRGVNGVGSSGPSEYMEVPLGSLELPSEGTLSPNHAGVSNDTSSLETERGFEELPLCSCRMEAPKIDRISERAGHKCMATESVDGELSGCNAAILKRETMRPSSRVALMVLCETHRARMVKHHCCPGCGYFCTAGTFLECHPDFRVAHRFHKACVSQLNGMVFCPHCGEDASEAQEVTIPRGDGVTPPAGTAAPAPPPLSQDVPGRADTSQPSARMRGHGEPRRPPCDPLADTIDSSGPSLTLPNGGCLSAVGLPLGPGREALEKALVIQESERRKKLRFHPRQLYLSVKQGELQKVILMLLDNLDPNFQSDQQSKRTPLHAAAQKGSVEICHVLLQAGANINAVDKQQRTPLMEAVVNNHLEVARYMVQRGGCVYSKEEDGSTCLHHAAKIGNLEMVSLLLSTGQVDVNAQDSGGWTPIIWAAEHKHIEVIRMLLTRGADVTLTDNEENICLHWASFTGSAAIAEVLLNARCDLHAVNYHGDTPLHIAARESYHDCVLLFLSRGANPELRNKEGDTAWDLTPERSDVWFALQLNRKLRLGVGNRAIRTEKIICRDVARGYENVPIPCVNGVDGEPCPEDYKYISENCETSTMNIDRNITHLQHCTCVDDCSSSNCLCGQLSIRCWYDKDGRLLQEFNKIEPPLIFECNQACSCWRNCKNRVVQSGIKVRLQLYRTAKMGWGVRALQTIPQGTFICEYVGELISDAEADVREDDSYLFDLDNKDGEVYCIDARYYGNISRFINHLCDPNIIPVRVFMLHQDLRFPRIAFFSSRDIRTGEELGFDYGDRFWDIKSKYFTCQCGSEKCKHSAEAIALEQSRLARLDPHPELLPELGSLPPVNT
Description: Inhibition of G9a (unknown origin) preincubated for 15 mins followed by substrate and [3H-SAM] addition and measured after 60 mins by microbeta analysis.

Data set [3] is described as follows: Apparent clearance during terminal phase in Sprague-Dawley rat at 10 mg/kg, po measured upto 24 hrs by LC/MS/MS analysis. The format is ADME, organism-based. Particulars: in vivo, read-out: CLz/F (converted).
In data set [4] the test system is HeLa. Description: Antiproliferative activity against human HeLa cells assessed as inhibition of cell viability measured after 72 hrs by MTT assay. The format is functional, cell-based.
In data set [5] the test system is HCT-116. Description: Antiproliferative activity against human HCT-116 cells assessed as inhibition of cell viability measured after 72 hrs by MTT assay. Particulars: HCT-116, 72 h. Type of data set: functional, cell-based.
The subject of data set [6] is U2932. Description: Antiproliferative activity against human U2932 cells assessed as inhibition of cell viability measured after 72 hrs by MTT assay. The format is functional, cell-based. As to conditions: U2932, 72 h.
Data set [7] has as its system Jurkat. Description: Antiproliferative activity against human Jurkat cells assessed as inhibition of cell viability measured after 72 hrs by MTT assay. The format is functional, cell-based.
Data set [8] in a line: Antiproliferative activity against human NK-YS cells assessed as inhibition of cell viability measured after 72 hrs by MTT assay. Type of data set: functional, cell-based.
Data set [9] deals with TMD8. Description: Induction of cell cycle arrest in human TMD8 cells assessed as accumulation of cells at S phase at 0.5 uM incubated for 24 hrs by PI staining based flow cytometry analysis (reference value: 39.0%). The format is functional.
For data set [10], the system named is DOHH-2. Description: Induction of cell cycle arrest in human DOHH-2 cells assessed as accumulation of cells at G0-G1 phase at 1 uM incubated for 24 hrs by PI staining based flow cytometry analysis (reference value: 27.1%). Type of data set: functional. A general note: A flow cytometer gives signals particle by particle.
Data set [11] has as its system DOHH-2. Description: Induction of cell cycle arrest in human DOHH-2 cells assessed as accumulation of cells at S phase at 0.5 uM incubated for 24 hrs by PI staining based flow cytometry analysis (reference value: 40.7%). Type of data set: functional.
Data set [12] has as its system DOHH-2. Description: Induction of cell cycle arrest in human DOHH-2 cells assessed as accumulation of cells at G2-M phase at 0.25 uM incubated for 24 hrs by PI staining based flow cytometry analysis (reference value: 27.8%). Type of data set: functional.
Data set [13] relates to DOHH-2. Description: Induction of apoptosis in human DOHH-2 cells assessed as early apoptotic cells measured after 48 hrs by annexin-V/FITC and PI staining based flow cytometry analysis. Type of data set: functional, cell-based. Particulars: dose 0.25-5 µM.
Data set [14] deals with DOHH-2. Description: Induction of apoptosis in human DOHH-2 cells assessed as early apoptotic cells at 0.25 uM measured after 48 hrs by annexin-V/FITC and PI staining based flow cytometry analysis (reference value: 5.69%). Type of data set: functional.
The subject of data set [15] is DOHH-2. Description: Induction of apoptosis in human DOHH-2 cells assessed as early apoptotic cells at 5 uM measured after 48 hrs by annexin-V/FITC and PI staining based flow cytometry analysis (reference value: 5.69%). The format is functional.
The subject of data set [16] is DOHH-2. Description: Induction of apoptosis in human DOHH-2 cells assessed as late apoptotic cells at 0.25 uM measured after 48 hrs by annexin-V/FITC and PI staining based flow cytometry analysis (reference value: 3.66%). The format is functional.
Data set [17] in a line: Downregulation of BAX methylation level in human DOHH-2 cells at 100 nM measured after 6 days by PCR analysis relative to control. The format is functional. Particulars: time 6 day.
Data set [18] can be described thus: Upregulation of BAX mRNA level in human DOHH-2 cells assessed as fold change at 300 nM measured after 6 days by PCR analysis. Particulars: time 6 day. Type of data set: functional.
Data set [19] has as its system TMD8. Description: Antitumor activity against human TMD8 cells xenografted in mouse model assessed as inhibition of DNA methylation at 10 mg/kg, iv administered three times a week. The format is functional, organism-based. A general note: Xenograft models place foreign cells or tissue in a host animal.
Data set [20] is described as follows: Antitumor activity against human TMD8 cells harbouring […] xenografted in mouse model assessed as tumor inhibition rate at 10 mg/kg, iv administered three times a week relative to control. Type of data set: functional. Further details: scale not given: the % may be the effect or the level left.
Data set [21] in a line: Antitumor activity against human TMD8 cells harbouring […] xenografted in mouse model assessed as tumor inhibition rate at 10 mg/kg, iv administered three times a week in presence of chidamide relative to control. Type of data set: functional. Further details: scale not given: the % may be the effect or the level left.
Data set [22] is described as follows: Antitumor activity against human TMD8 cells harbouring […] xenografted in mouse model assessed as body weight change at 10 mg/kg, iv administered three times a week relative to control. Type of data set: functional.
A short description of data set [23]: Antitumor activity against human TMD8 cells harbouring TP53 mutant xenografted in mouse model assessed as body weight change at 10 mg/kg, iv administered three times a week relative to control. The format is functional.

The IC50 is the midpoint of a concentration-inhibition curve. Consider `CN1CCC(Nc2nc(-c3ccnc(F)c3)nc3c2ccn3CCCN2CCCC2)CC1`, for which the IC50 is 2210 nM in data set [1]; > 20000 nM in [2]; 3020 nM in data set [4]; 720 nM in [5]; 540 nM in data set [6]; 570 nM in data set [7]. The IC50 in data set [8] stood at 770 nM. For the same compound, the CL/F in [3] was 322 mL/min/kg. In addition, the Activity in data set [9] was 32.3%; in data set [10], 42.2%; in data set [11], 26.6%; in data set [12], 29.9%; in data set [13] it was “Dose-dependent-effect”; in [14], 10.5%. Also, the Activity in data set [15] worked out at 44.7%; in [16], 7.58%; in data set [17] it was 55.2%; in [20], 65.7%; in data set [21], 78.1%; in [22], 6.8%. The Activity in data set [23] is reported as -0.9%. Also, the “fold change (FC)” value in data set [18] is on record as 1.93. For the same compound, the outcome in data set [19] was Active.

The values above are taken from ChEMBL document CHEMBL6153174, “Design and Synthesis of Novel Deazapurine DNMT 1 Inhibitors with In Vivo Efficacy in DLBCL” (J Med Chem, 2025).
